Here are results for one molecule from patent publication US6528685B2 (Teva Pharmaceutical Industries, Ltd., priority 1994, dated 2003).

The subject of series [1] is rats. To be noted: rats p.o.
In series [2] the test system is Mechanically dissociated Neonatal Rat Cerebellum. Description: Reversal of NMDA induced cell death, neonatal rat cerebellum cultures. Type of series: cell-based. The settings on record: for SURVIVING CELL IN CULTURE: relative to control (100%); for PERCENT PROTECTION: cell survival minus NMDA effect (30%); for EFFECTIVE PROTECTION: percent protection x 100/70. The method, then: (§1) The cerebellum was aseptically dissociated from 6 or 7-day old rat pups and placed in a 15 ml sterile plastic conical tube containing 3 ml of Dulbecco's modified Eagle's medium (DMEM) with a high glucose concentration ([…]) and 2 mM (v/v) L-glutamine and an antibiotic antimitotic mixture. The cerebella were then dissociated after 20-25 passages through a sterile 13 gauge, 10 cm long stainless steel needle attached to a 5 ml syringe with an inserted 45 micrometer pore nylon sieve. The dissociated cells were centrifuged at 200 g for 5 minutes. The supernatant was discarded and the cells resuspended in medium enriched with 15% (v/v) heat inactivated fetal calf serum. Cell viability was determined by the tryptan blue exclusion test.
Cells were plated at a density of 200/mm^2 on poly-L-lysine coated surfaces. Poly-L-lysine coated glass coverslips were prepared at least one hour in advance of plating by immersing sterile coverslips in sterile distilled water solution containing 15 microgram/ml poly-L-lysine, and washing in sterile water just prior to use. The plated cells were covered with enriched medium and incubated at 37° C. in an atmosphere of 5% CO2 in air and 97% humidity. After three days in culture, the media was replaced with media containing the desired test compound. Each test compound was tested in duplicate. Toxic-dose response was determined for each compound.
Four groups were run in each set of experiments;
I. Control, consisting of enriched media alone,
II. N-methyl-D-aspartate (NMDA, 1 mM for 3 hours) as the cytotoxic challenge,
III. Test compound plus NMDA, and
IV. Positive control, spermine(0.01 micromoles) plus NMDA.
Nerve cell survival was evaluated by phase contrast microscopy and tryptan blue staining after 24 hours.
Surviving cells in culture are measured relative to control (100%) as described above. Percent protection is the Cell Survival for the test compound minus the NMDA effect. Thus, maximal protection is 100% minus 30% NMDA effect i.e. 70%. The Effective Protection was calculated as the percent of the Percent Protection (X) divided by the maximal protection value (e.g. X×100/70).

Series [3] has as its system mongolian gerbils. Description: Global brain ischemia in gerbils. Type of series: in vivo, mongolian gerbil. The settings on record: 3 injections, fraction of hippocampi protected from ischemia, 14 days post-ischemia. The method, then: Male mongolian gerbils, aged 2.5-5 months, housed 4-8 in a cage, were supplied freely with food and water and maintained at 24° C. with a 12 hour day/night cycle. […] Each artery was clamped for 5 minutes with aneurysm clips to produce global brain ischemia. The anesthesia was discontinued upon clamping. After 5 minutes the clamps were removed and the wound closed with skin clips.
For treatment, the test compound or vehicle were injected intra-peritoneally (ip) in a volume of 50 microliters of solvent per 10 g body weight. The first injection was given two minutes after clamp removal, and thereafter daily for the next 2 post-operative days (total of 3 injections).
Seven groups each of 4-8 animals were compared:
V. Ischemia—Test compound treated, one sub-group per concentration tested,
VI. Ischemia and pentobarbital (40 mg/kg) as positive control).
Analysis of neuronal damage was performed 14 days post-ischemia by counting pyramidal neurons throughout the CA1 layer of the anterior hippocampus in […] thick (paraffin) coronal brain sections stained with hematoxylin and erosin.
Percent Protection values represent the fraction of hippocampi protected from ischemia in a group of animals treated with the stated dose of compound.

Series [4] concerns mice. To be noted: mice i.p.
In series [5] the test system is rats. Description: Maximal electroshock (MES) model, rats. The settings on record: rats, oral (p.o.) administration; median effective dose. A general note: The maximal electroshock test induces tonic seizures with an electrical stimulus.
In series [6] the test system is rats. Description: Neurotoxicity in rats, positional sense test and gait stance test. To be noted: rats p.o.; positional sense test and gait stance test. The method, then:
(§2) Neurotoxicity of the claimed agents was also assessed in mice (i.p. administration) by the rotorod ataxia test and/or in rats (p.o. administration) by positional sense test and gait stance test. […] The term quantitating the neurotoxicity is the medial neurological toxic dose (TD50), was determined in the above tests.

The subject of series [7] is Mechanically dissociated Neonatal Rat Cerebellum. Description: Enhancement of cell survival, neonatal rat cerebellum cultures without NMDA. Type of series: cell-based. The settings on record: 0.005 μM; 24 hours after addition, fourth day; percentage of control cells; no NMDA. As to the method:
as §1, with “The supernatant was discarded and the cells resuspended in medium enriched with 15% (v/v) heat inactivated fetal calf serum.” left out
Cells were plated at a density of 200/mm^2 on poly-L-lysine coated surfaces. Poly-L-lysine coated glass coverslips were prepared at least one hour in advance of plating by immersing sterile coverslips in sterile distilled water solution containing 15 microgram/ml poly-L-lysine, and washing in sterile water just prior to use. […] After three days in culture, the media was replaced with media containing the desired test compound. Each test compound was tested in duplicate. Toxic-dose response was determined for each compound.
Cell cultures were grown as described above but in the absence of NMDA and after 3 days a dose of test compound was added. Cell survival was monitored as described above.

In series [8] the test system is mice. Description: Maximal electroshock (MES) model, mice. To be noted: mice, intraperitoneal (i.p.) administration.
Series [9] has as its system mice. Description: Neurotoxicity in mice, rotorod ataxia test. To be noted: mice i.p.; rotorod ataxia test. The method, then: as §2
Background: The rotarod test checks motor coordination on a turning rod.

Structures can show the parent of a compound that is named as a salt.

For `NC(=O)CN[C@H]1CCc2ccccc21` [Compound 2, (S)-N-(2-Acetamido)-1-aminoindan.HCl], the “RATS scMet ED50 PI” value in series [1] was more than 250 mg/kg. Moreover, the “SURVIVING CELL IN CULTURE” value in series [2] (0.005 μM + NMDA 1 mM 3 hours) worked out at 56%; in [2] (0.010 μM + NMDA 1 mM 3 hours), 51%; in series [2] (0.100 μM + NMDA 1 mM 3 hours) it was 33%. For the same molecule, the “PERCENT PROTECTION” value turned out to be 26% in series [2] (0.005 μM + NMDA); 21% in series [2] (0.010 μM + NMDA); 3% in [2] (0.100 μM + NMDA); 0% in [3] (0.1 mg/kg ip); 50.0% in series [3] (1.0 mg/kg ip); 37.5% in series [3] (10.0 mg/kg ip). The “EFFECTIVE PROTECTION” value in [2] (0.005 μM + NMDA) is reported as 37%; in [2] (0.010 μM + NMDA), 30%; in [2] (0.100 μM + NMDA) it was 4%. Moreover, the “MICE scMet ED50 PI” value in series [4] is more than 150 mg/kg. Further, the “RATS MES 50” value in series [5] was found to be 21 mg/kg. Moreover, in [6], the “RATS TD50” value is given as more than 500 mg/kg. For the same molecule, the “% ENHANCED SURVIVAL” value in series [7] is 140%. In addition, in [8], the “MICE MES ED50” value was 39 mg/kg. Besides, in series [9], the “MICE TD50” value was determined as 137 mg/kg.
